In data set [1] the target is CYP3A5 (Homo sapiens, UniProt P20815). As to the kind of experiment: Enzyme kinetics of toddalolactone metabolism by recombinant CYP3A5. The conditions noted are these: P4 formation.
Method: The enzyme kinetics of toddalolactone in oxidative metabolism and glucuronidation were determined by incubating liver microsomes (0.2 mg/mL) or CYPs (15 nM) with different concentrations of toddalolactone (1–200 μM). The kinetic parameters including Km and Vmax were obtained by fitting the experimental data to the Michaelis–Menten equation (Equation (1)), biphasic kinetics equation (Equation (2)), or substrate inhibition equation (Equation (3)) (He et al. [2018]), and the results were graphically represented on Eadie–Hofstee plots. The in vitro intrinsic clearance (CLint) was calculated based on the Vmax/Km ratio. Metabolites were quantified using the standard curve for toddalolactone because of the absence of metabolite standards. All incubations were repeated in three independent experiments. Kinetic constants were expressed with mean ± SD: (1) V=Vmax×[S]/Km+[S] (2) V=Vmax1×[S]/Ks1+[S]+Vmax2×[S]/Ks2+[S] […]
Data set [2] is described as follows: Enzyme kinetics of toddalolactone metabolism in rabbit liver microsomes (oxidative metabolism and glucuronidation). The conditions noted are these: rabbit, liver microsomes, pH 7.4, RAMs, Vmax/Km. It counts as in vitro ADME. As for the experimental part:
(§1) The CYP reaction system (200 μL) consisted of 0.1 M potassium phosphate buffer (pH 7.4), an NADPH-generating system (1 mM NADPH, 10 mM G-6-P, 1 unit/mL G-6-PD, 4 mM MgCl2), and liver microsomes or recombinant human microsomes (supersomes). Each of the in vitro enzymatic assays using liver microsomes was linear with respect to incubation time and amount of protein. After a pre-incubation at 37 °C for 3 min, the reactions were initiated by adding NADP^+. After incubating for 60 min, the reactions were quenched by adding 200 μL of ice-cold acetonitrile. Samples were centrifuged at 18,000 g for 15 min at 4 °C and 10 μL of supernatant was analyzed using an HPLC system. NADPH or CYP enzyme sources were not used in the control group to ensure that the metabolic reactions were CYP- and NADPH-dependent. All incubation assays were completed in triplicate. The data are presented as mean ± standard deviation (SD).
(§2) In the UGT reaction system, liver microsomes were incubated in 200 μL of the reaction system containing 4 mM UDPGA, 5 mM MgCl2, 20 µg/mL alamethicin, and 50 mM Tris-HCl buffer (pH 7.4). After pre-incubation at 37 °C for 3 min, UDPGA was added to the mixture to initiate the reactions. The mixtures were incubated at 37 °C for 60 min, followed by the addition of 200 μL of cold methanol to terminate the reactions. After centrifugation at 18,000 g for 15 min, 10 μL of the supernatant was analyzed by HPLC.
(§3) The enzyme kinetics of toddalolactone in oxidative metabolism and glucuronidation were determined by incubating liver microsomes (0.2 mg/mL) or CYPs (15 nM) with different concentrations of toddalolactone (1–200 μM). The kinetic parameters including Km and Vmax were obtained by fitting the experimental data to the Michaelis–Menten equation (Equation (1)), biphasic kinetics equation (Equation (2)), or substrate inhibition equation (Equation (3)) (He et al. [2018]), and the results were graphically represented on Eadie–Hofstee plots. The in vitro intrinsic clearance (CLint) was calculated based on the Vmax/Km ratio. Metabolites were quantified using the standard curve for toddalolactone because of the absence of metabolite standards. All incubations were repeated in three independent experiments. Kinetic constants were expressed with mean ± SD: (1) V=Vmax×[S]/Km+[S] (2) V=Vmax1×[S]/Ks1+[S]+Vmax2×[S]/Ks2+[S] (3) V=Vmax×[S]/Ks+[S]+[S]^2/Ksi where v is the rate of reaction, Vmax is the estimated maximum velocity, [S] is the substrate concentration, and Km is the affinity constant of the substrate; Vmax1 and Vmax2 represent the estimated maximum velocity of the two metabolic phases; Ks1 and Ks2 represent the affinity constants for two metabolic phases; Ks and Ksi are the substrate affinity and inhibition constants, respectively.
(§4) The enzyme kinetics in oxidative metabolism and glucuronidation of toddalolactone were studied, and preliminary experiments were performed to ensure that metabolites were formed in the linear range of both reaction time and microsomal protein concentration. The metabolite with the largest peak area was used to calculate the kinetic parameter values (Km, Vmax and CLint). Based on the results of toddalolactone metabolism in different species, the kinetic parameter values in RLMs, DLMs, MLMs, HLMs, RAMs, MIMs, PLMs, CYP1A1 and CYP3A5 were calculated using P4, P4, P4, P4, P2, P2, P4, P4 and P4 data in oxidative metabolism, respectively. In the glucuronidation reaction, the kinetic parameter values in RLMs, MLMs, HLMs, RAMs and PLMs were calculated using P5, P6, P6, P6 and P5 data, respectively.

The subject of a further data set is RAMs. The description is as above. The format is in vitro ADME. The settings on record: RAMs; for V max: toddalolactone 1–200 μM. As for the experimental part:
as §1, §2, §3, §4

A further data set concerns HLMs. As to the kind of experiment: Enzyme kinetics of toddalolactone metabolism in human liver microsomes (oxidative metabolism and glucuronidation). The format is in vitro ADME. The conditions noted are these: HLMs; for V max: toddalolactone 1–200 μM. As to the method: as §1, §2, §3, §4
(In general: Microsomes from liver hold many membrane-bound enzymes, among them those of drug oxidation.)

Test in data set [3]: as above
It counts as in vitro ADME. The conditions noted are these: human, liver microsomes, pH 7.4, HLMs, Vmax/Km. As to the method: as §1, §2, §3, §4

The nature of data set [4]: Enzyme kinetics of toddalolactone metabolism in mini pig liver microsomes (oxidative metabolism and glucuronidation). It counts as in vitro ADME. The settings on record: pig, Vmax/Km. As to the method: as §1, §2, §3, §4
A further data set relates to PLMs. The data set is described as above. It counts as in vitro ADME. The conditions noted are these: for V max: toddalolactone 1–200 μM. As for the experimental part: as §1, §2, §3, §4
Data set [5] has as its system CYP3A5. Briefly: Western blot of CYP3A5 protein expression in HepG2 cells. It counts as cell-based. The conditions noted are these: 0, 10 and 50 μM, 24 h. As for the experimental part:
Hep G2 cells were seeded into 100 mm Petri dishes and treated with different concentrations of toddalolactone (0, 10 and 50 µmol/L) for 24 h. Total protein was extracted using RIPA lysis buffer containing proteinase inhibitor (BestBio, Shanghai, China). After the protein concentration was measured using a bicinchoninic acid (BCA) assay kit (Beyotime, Shanghai, China), samples were electrophoretically transferred to polyvinylidene difluoride (PVDF) membranes. After blocking with TTBS (0.5% Tween 20, 10 mM Tris-HCl, pH 7.5, 150 mM NaCl) containing 5% non-fat milk for 1 h at room temperature, the membrane was incubated with antibodies against β-Actin, CYP1A1, and CYP3A5 overnight at 4 °C. Then, membranes were washed with TBS (10 mM Tris-HCl, pH 7.5, 150 mM NaCl) containing 0.05% Tween 20 three times and further incubated with HRP-conjugated secondary antibodies against rabbit (for β-actin, CYP1A1 and CYP3A5) for 1 h at room temperature.
Background: In western blotting, separated proteins are transferred to a membrane and probed.

Data set [6] in a line: Enzyme kinetics of toddalolactone metabolism in mouse liver microsomes (oxidative metabolism). It counts as in vitro ADME. The conditions noted are these: pH 7.4; MOMs (mouse liver microsomes); P450-catalyzed oxidation; P2 formation; Vmax/Km. As for the experimental part: as §1
(§5) The enzyme kinetics of toddalolactone in oxidative metabolism and glucuronidation were determined by incubating liver microsomes (0.2 mg/mL) or CYPs (15 nM) with different concentrations of toddalolactone (1–200 μM). […] The in vitro intrinsic clearance (CLint) was calculated based on the Vmax/Km ratio. Metabolites were quantified using the standard curve for toddalolactone because of the absence of metabolite standards. […]
as §4, with “The metabolite with the largest peak area was used to calculate the kinetic parameter values (Km, Vmax and CLint).” left out

A further data set has as its system MIMs. The data set is described as above. The format is in vitro ADME. The settings on record: MOMs (mouse liver microsomes), P450-catalyzed oxidation, P2 formation. As for the experimental part: as §1, §5
as §4, with “The metabolite with the largest peak area was used to calculate the kinetic parameter values (Km, Vmax and CLint).” left out

The mark [7] stands for this setting: P450-catalyzed oxidation, P2 formation.
The mark [8] stands for this setting: glucuronide metabolism, P6 formation.
[9] abbreviates: P450-catalyzed oxidation, P4 formation.
The mark [10] stands for this setting: glucuronide metabolism, P5 formation.

Each structure is given as a SMILES string.

We go through 1 compound from PMC9367672, “In vitro differences in toddalolactone metabolism in various species and its effect on cytochrome P450 expression” (Pharmaceutical Biology, 2022).

Sequence of CYP3A5 (Homo sapiens, UniProt P20815) (P20815 whole entry): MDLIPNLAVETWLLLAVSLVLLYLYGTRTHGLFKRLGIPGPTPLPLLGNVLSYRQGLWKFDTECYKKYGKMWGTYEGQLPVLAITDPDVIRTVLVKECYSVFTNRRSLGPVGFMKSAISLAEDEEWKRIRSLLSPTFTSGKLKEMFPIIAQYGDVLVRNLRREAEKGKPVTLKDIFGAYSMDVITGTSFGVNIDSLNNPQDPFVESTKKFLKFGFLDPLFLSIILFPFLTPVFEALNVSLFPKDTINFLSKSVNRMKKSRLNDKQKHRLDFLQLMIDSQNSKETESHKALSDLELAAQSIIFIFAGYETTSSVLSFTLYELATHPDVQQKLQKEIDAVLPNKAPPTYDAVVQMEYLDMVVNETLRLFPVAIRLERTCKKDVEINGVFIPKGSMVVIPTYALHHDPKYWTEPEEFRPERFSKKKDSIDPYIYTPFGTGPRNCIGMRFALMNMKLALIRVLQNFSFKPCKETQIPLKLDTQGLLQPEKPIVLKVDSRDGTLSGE

`COc1cc2oc(=O)ccc2c(OC)c1C[C@@H](O)C(C)(C)O` [toddalolactone]: the K m was 50.34 ± 8.62 µM at CYP3A5 [1] (recombinant CYP3A5 (15 nM)); 76.46 ± 16.02 µM with RAMs (setting [7]); 91.46 ± 28.22 µM with RAMs (setting [8]); 244.63 ± 78.99 µM in the data set on HLMs (setting [9]); 66.33 ± 20.46 µM in the data set on HLMs (setting [8]); 135.36 ± 32.39 µM in the data set with PLMs (setting [9]). Also, the K m came to 93.28 ± 22.35 µM in the data set with PLMs (setting [10]) and 146.32 ± 26.62 µM with MIMs. For the same compound, on CYP3A5 [1] (recombinant CYP3A5, Vmax/Km), the CLint is listed as 0.013 µL/min/nmol CYP. Moreover, the microsomal CLint was 0.26 µL/min/mg in data set [2] (setting [7]); 0.12 µL/min/mg in [2] (setting [8]); 0.14 µL/min/mg in [3] (setting [9]); 0.75 µL/min/mg in data set [3] (setting [8]); 0.69 µL/min/mg in data set [4] (liver microsomes, pH 7.4, PLMs, P450-catalyzed oxidation, P4 formation); 0.36 µL/min/mg in [4] (mini pig liver microsomes (PLMs), UGT reaction system, pH 7.4, glucuronide metabolism, P5 formation). Also, the microsomal CLint in [6] was found to be 1.61 µL/min/mg. Also, the V max in the data set with RAMs (setting [7]) stood at 20.03 ± 1.72 pmol/min/mg protein; in the data set with RAMs (setting [8]), 11.98 ± 2.19 pmol/min/mg protein; with HLMs (setting [9]), 35.07 ± 7.16 pmol/min/mg protein; in the data set on HLMs (setting [8]) it was 50.16 ± 8.75 pmol/min/mg protein; in the data set with PLMs (setting [9]), 94.24 ± 11.61 pmol/min/mg protein; with PLMs (setting [10]) it was 34.12 ± 3.62 pmol/min/mg protein. Moreover, the V max in the data set on MIMs (toddalolactone 1–200 μM) is 235.91 ± 22.75 pmol/min/mg protein. Also, the “protein expression of CYP3A5” value in the data set on CYP3A5 [5] is reported as “did not show any significant change”.
